These results are taken from ChEMBL document CHEMBL1123138 (J Med Chem, 1985).

Molecules are shown by their SMILES.

The experiment relates to Rattus norvegicus. The experiment can be described thus: Effective dose required to inhibit sorbitol accumulation in sciatic nerves of streptozotocinized rats administered perorally. Type of experiment: functional, Sciatic nerve.

A word on the ED50: it is the midpoint of the dose-response relation. `O=C1NC(=O)[C@@]2(CCOc3ccc(F)cc32)N1` (stereo in doubt; form 1) [SORBINIL] registered an ED50 of 0.25 mg/kg.

Take `O=C1NC(=O)[C@@]2(CCOc3ccc(F)cc32)N1` (stereo in doubt; form 2) [SORBINIL]: the median effective dose (ED50) came to 25 mg/kg.
